According to paper PMC10786919, “Design-rules for stapled peptides with in vivo activity and their application to Mdm2/X antagonists” (Nature Communications, 2024):
Converted amounts (≈) assume the structure as drawn. Where two headings read alike, the source gives them in different places. Positions of bridges follow the written chain, without caps; N, C: chain ends. Non-standard residues stand in square brackets, D forms with d. Residues, ends and D or L forms follow the SMILES beside them. Lys(N3) = [N-]=[N+]=NCCCC[C@H](N)C(=O)O; R8 = C=CCCCCCC[C@@](C)(N)C(=O)O; Cba = N[C@@H](CC1CCC1)C(=O)O; S5 = C=CCCC[C@](C)(N)C(=O)O; βAla = NCCC(=O)O

Tests used:
[1] = Lactate dehydrogenase (LDH) release assay; type: cell-based
In short: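 Read-out was lactate dehydrogenase release, reflecting loss of membrane integrity, in reporter-engineered HCT116 cells (p53-responsive β-lactamase) seeded at 8000 cells per well. Final DMSO was 0.5%, and reported values are geometric means from three or more biological repeats.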

Ca Ski cell line = conditions: 72 h
Procedure: (§1) The medium for CellSensor™ p53RE-bla HCT-116 cells was McCoy’s 5 A Medium (GIBCO16600-002) supplied with 10% FBS (Hyclone, SH30406.05), 100 U/100ug/ml of Pen/Strep (SolarBio, P1400) and 5 μg/ml of blasticidin (GIBCO, A11139). The medium for Ca Ski cells was RPMI1640 (Hyclone, SH3080901B) supplied with 10% FBS and 100 U/100ug/ml of Pen/Strep. All cells were kept in humidified incubators with 5% CO2 at 37 °C. Culture media was changed after one day of subculturing and cells were passed again when there was 70–80% confluence. One day before the assay, the cells were trypsinized, collected, counted and viability was determined. […] The plates were kept in humidified incubators with 5% CO2 at 37 °C overnight. Compounds were prepared as a 10 point, 3x serial dilution in 100% DMSO, starting from a top concentration of 10 mM. […] At the end of the incubation the assay plate was equilibrated at room temperature for approximately 30 minutes prior to the addition of 25 uL of CellTiter-Glo® 2.0 Reagent. The assay plate was mixed for 2 minutes on an orbital shaker to induce cell lysis. Next, the plate was incubated at room temperature for 10 minutes to stabilize the luminescent signal prior to recording the luminescence on a plate reader.

[2] = test system: CellSensor p53RE-bla HCT-116 Cell Line; conditions: 72 h
Procedure: as §1

in vitro = conditions: Nanoclick permeability assay EC50
In short: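 Azido-peptide permeability was read as loss of NanoBRET signal (donor 450 nm, acceptor 610 nm) after adding NanoBret618-azide at 10 μM final.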

[3] = Experimental LogD (partition coefficient); conditions: not stated, Partition Coeff LogD
[4] = Solubility assay (kinetic solubility, PBS pH 7); type: physicochemical; conditions: for solubility kinetic: pH 7, aqueous buffer, kinetic from dmso stock, read-out: Solubility
In short: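 Next, measure peak areas of sample and standard. Finally, multiply their ratio by the standard concentration to obtain solubility (µM).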

What does the source list for `CC(=O)N[C@@H](CCCCN=[N+]=[N-])C(=O)NCCC(=O)N[C@@H](CC(C)C)C(=O)N[C@H](C(=O)N[C@@H](Cc1ccccc1)C(=O)N[C@]1(C)CCCCCCC=CCCC[C@@](C)(C(=O)N[C@@H](CO)C(=O)N[C@@H](C)C(=O)N[C@@H](C)C(N)=O)NC(=O)[C@H](CC2CCC2)NC(=O)[C@H](CCCNC(=N)N)NC(=O)[C@H](C)NC(=O)[C@H](Cc2c[nH]c3ccccc23)NC(=O)[C@H](Cc2ccc(O)cc2)NC(=O)[C@H](CCC(=O)O)NC1=O)[C@@H](C)O` [MP-556] (Ac-[Lys(N3)][βAla]LTF[R8]EYWAR[Cba][S5]SAA-NH2; staple 6-13)?
EC50 ([1]; LDH: Cytotoxicity assay EC50): > 50 µM; EC50 (Ca Ski cell line): > 49.8 µM; EC50 [2]: 3.14 µM; cell entry EC50 (in vitro): 0.149 µM; EPSA (physchem): 221 A^2; logD [3]: 3.15

Which results are given for `CC(=O)N[C@@H](CCCCN=[N+]=[N-])C(=O)NCCC(=O)N[C@@H](CC(C)C)C(=O)N[C@@H](CCC(=O)O)C(=O)N[C@@H](Cc1ccccc1)C(=O)N[C@]1(C)CCCCCCC=CCCC[C@@](C)(C(=O)N[C@@H](CO)C(=O)N[C@@H](C)C(=O)N[C@@H](C)C(N)=O)NC(=O)[C@H](CC2CCC2)NC(=O)[C@H](CCC(N)=O)NC(=O)[C@H](C)NC(=O)[C@H](Cc2c[nH]c3ccccc23)NC(=O)[C@H](Cc2ccc(O)cc2)NC(=O)[C@H](CCC(=O)O)NC1=O` [MP-179]?
EC50 ([1]; LDH: Cytotoxicity assay EC50): > 50 µM; solubility kinetic ([4]; pH 7, PBS): 102 µM (≈ 205 µg/mL); EC50 (Ca Ski cell line): > 49.8 µM; EC50 [2]: 13.6 µM; cell entry EC50 (in vitro): 0.173 µM; EPSA (physchem): 243 A^2; logD [3]: 2.5

Which EC50 ([1]; LDH Cytotoxicity assay EC50) does the source give for `CC(=O)N[C@@H](CCCCN=[N+]=[N-])C(=O)N[C@@H](CCCCN)C(=O)N[C@@H](CCCCN)C(=O)NCCC(=O)N[C@@H](C)C(=O)N[C@@H](C)C(=O)N[C@@H](Cc1ccccc1)C(=O)N[C@]1(C)CCCCCCC=CCCC[C@@](C)(C(=O)N[C@@H](C)C(=O)N[C@@H](C)C(=O)N[C@@H](C)C(N)=O)NC(=O)[C@H](CC2CCC2)NC(=O)[C@H](C)NC(=O)[C@H](C)NC(=O)[C@H](Cc2c[nH]c3ccccc23)NC(=O)[C@H](Cc2ccc(O)cc2)NC(=O)[C@H](C)NC1=O` [MP-8967] (Ac-[Lys(N3)]KK[βAla]AAF[R8]AYWAA[Cba][S5]AAA-NH2; staple 8-15) here?
Its EC50 is 16.8 µM.

And the EC50 ([1]; LDH: Cytotoxicity assay EC50)?
Its EC50 is 16.8 µM.

What about the Solubility [4] of the same molecule?
The Solubility was “P.B”.

And the Solubility ([4]; pH 7, PBS)?
Its Solubility is “Poorly Behaved”.

What about the EC50 (Ca Ski cell line) of the same molecule?
Its EC50 is 13.5 µM.

What about the EC50 [2] of the same molecule?
Its EC50 is 12.1 µM.

And the cell entry EC50 (in vitro)?
The cell entry EC50 was 0.575 µM.

What about the EPSA (physchem) of the same molecule?
The EPSA was 223 A^2.

What about the logD [3] of the same molecule?
The logD was 2.75.

With `CC(=O)N[C@@H](CCCCN=[N+]=[N-])C(=O)NCCC(=O)N[C@@H](CCC(=O)O)C(=O)N[C@H](C(=O)N[C@@H](Cc1ccccc1)C(=O)N[C@]1(C)CCCCCCC=CCCC[C@@](C)(C(=O)N[C@@H](CO)C(=O)N[C@@H](C)C(=O)N[C@@H](C)C(N)=O)NC(=O)[C@H](CC2CCC2)NC(=O)[C@H](CCC(N)=O)NC(=O)[C@H](C)NC(=O)[C@H](Cc2c[nH]c3ccccc23)NC(=O)[C@H](Cc2ccc(O)cc2)NC(=O)[C@H](CCC(=O)O)NC1=O)[C@@H](C)O` [MP-178] as the molecule, how does the EC50 ([1]; LDH: Cytotoxicity assay EC50) read?
The EC50 was over 50 µM.

What about the solubility kinetic ([4]; pH 7, PBS) of the same molecule?
The solubility kinetic was 169 µM (≈ 336 µg/mL).

And the EC50 (Ca Ski cell line)?
The EC50 was over 49.8 µM.

What about the EC50 [2] of the same molecule?
Its EC50 is 2.74 µM.

And the cell entry EC50 (in vitro)?
Its cell entry EC50 is 0.292 µM.

What about the EPSA (physchem) of the same molecule?
The EPSA was 254 A^2.

And the logD [3]?
The logD was 2.47.

For `CC(=O)N[C@@H](CCCCN=[N+]=[N-])C(=O)NCCC(=O)N[C@@H](Cc1c[nH]c2ccccc12)C(=O)N[C@H](C(=O)N[C@@H](Cc1ccccc1)C(=O)N[C@]1(C)CCCCCCC=CCCC[C@@](C)(C(=O)N[C@@H](CO)C(=O)N[C@@H](C)C(=O)N[C@@H](C)C(N)=O)NC(=O)[C@H](CC2CCC2)NC(=O)[C@H](CCC(N)=O)NC(=O)[C@H](C)NC(=O)[C@H](Cc2c[nH]c3ccccc23)NC(=O)[C@H](Cc2ccc(O)cc2)NC(=O)[C@H](CCC(=O)O)NC1=O)[C@@H](C)O` [MP-183] (Ac-[Lys(N3)][βAla]WTF[R8]EYWAQ[Cba][S5]SAA-NH2; staple 6-13), which EC50 ([1]; LDH: Cytotoxicity assay EC50) is on record?
Its EC50 is over 50 µM.

And the solubility kinetic ([4]; pH 7, PBS)?
The solubility kinetic was 19 µM (≈ 38.8 µg/mL).

What about the EC50 (Ca Ski cell line) of the same molecule?
The EC50 was 38.5 µM.

And the EC50 [2]?
Its EC50 is 5.74 µM.

What about the cell entry EC50 (in vitro) of the same molecule?
The cell entry EC50 was 0.229 µM.

And the EPSA (physchem)?
Its EPSA is 247 A^2.

What about the logD [3] of the same molecule?
Its logD is 3.04.

For `CC(=O)N[C@@H](CCCCN=[N+]=[N-])C(=O)NCCC(=O)N[C@@H](CC(C)C)C(=O)N[C@H](C(=O)N[C@@H](Cc1ccccc1)C(=O)N[C@]1(C)CCCCCCC=CCCC[C@@](C)(C(=O)N[C@@H](CO)C(=O)N[C@@H](CCC(=O)O)C(=O)N[C@@H](C)C(N)=O)NC(=O)[C@H](CC2CCC2)NC(=O)[C@H](CCC(N)=O)NC(=O)[C@H](C)NC(=O)[C@H](Cc2c[nH]c3ccccc23)NC(=O)[C@H](Cc2ccc(O)cc2)NC(=O)[C@H](CCC(=O)O)NC1=O)[C@@H](C)O` [MP-898], which EC50 ([1]; LDH: Cytotoxicity assay: EC50) is on record?
Its EC50 is over 50.7 µM.

What about the solubility kinetic ([4]; pH 7, PBS) of the same molecule?
Its solubility kinetic is 145 µM (≈ 294 µg/mL).

What about the EC50 (Ca Ski cell line) of the same molecule?
Its EC50 is over 49.8 µM.

What about the EC50 [2] of the same molecule?
The EC50 was 7.5 µM.

What about the cell entry EC50 (in vitro) of the same molecule?
Its cell entry EC50 is 0.808 µM.

And the logD [3]?
The logD was 2.4.
